Test results as given in US20200405868A1, “GEL-FORMING POLYPEPTIDES” (priority 2018, published 2020).
Read-outs that look alike come from different tables or passages of the source. Where a SMILES comes first, the peptide text is derived from it. [ ]: non-standard residue; d: D form. The star is where a group is joined. dPhe(4-Cl) = N[C@H](Cc1ccc(Cl)cc1)C(=O)O; d2Nal = N[C@H](Cc1ccc2ccccc2c1)C(=O)O; Palmitoyl = CCCCCCCCCCCCCCCC(=O)*; dCit = NC(=O)NCCC[C@@H](N)C(=O)O; d3Pal = N[C@H](Cc1cccnc1)C(=O)O

Tests used:
[1] = molecular target: T1, GnRH receptor (GnRHR or LHRHR) (Homo sapiens, UniProt P30968); test: GnRHR calcium flux assay (Discoverx), antagonistic; assay type: cell-based; conditions: for IC50: LHRH-stimulated
T1 sequence (P30968 1-328): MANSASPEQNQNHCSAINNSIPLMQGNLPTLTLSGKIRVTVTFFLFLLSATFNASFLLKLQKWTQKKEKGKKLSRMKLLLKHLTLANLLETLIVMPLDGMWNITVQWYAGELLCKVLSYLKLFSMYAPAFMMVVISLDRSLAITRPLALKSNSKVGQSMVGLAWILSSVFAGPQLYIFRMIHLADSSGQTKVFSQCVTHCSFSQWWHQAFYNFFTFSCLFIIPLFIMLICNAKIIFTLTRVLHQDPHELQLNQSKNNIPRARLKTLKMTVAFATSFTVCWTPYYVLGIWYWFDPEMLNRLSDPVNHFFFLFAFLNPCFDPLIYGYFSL
From the text: To study the bioactivities of conjugated and mutated peptides, we employed in vitro receptor-activation assays with cultured cells expressing recombinant melanocortin receptor 1 (MC1R), melanocortin receptor 4 (MC4R), CRH receptor 2 (CRHR2), PTH receptor 1 (PTHR1), or kappa opioid receptor (OPRK1). The agonistic activities toward MC1R, MC4R, CRHR2, PTHR1, and OPRK1 were assyed with an MC1R cAMP assay, an MC4R cAMP assay, a CRHR2 cAMP assay, a PTHR1 cAMP assay and an OPRK1 cAMP assay from Discoverx Inc. (Fremont, Calif.), respectively. The antagonistic activities toward bradykinin receptor 2 (BDKRB2) and GnRH receptor (GnRHR or LHRHR) were assayed with a BDKRB2 arrestin assay and a GnRHR calcium flux assay from Discoverx, respectively.
For the analysis of calcium flux, cell lines were expanded from freezer stocks and seeded in a total volume of 20 μL into black-walled, clear-bottom, Poly-D-lysine coated 384-well microplates and incubated at 37 C for the appropriate time prior to testing. Assays were performed in 1× Dye Loading Buffer consisting of 1× Dye, 1× Additive A and 2.5 mM Probenecid in HBSS/20 mM Hepes. Cells were loaded with dye prior to testing. Media was aspirated from cells and replaced with 20 μL Dye Loading Buffer. Cells were incubated for 30-60 minutes at 37 C. For agonist determination, cells were incubated with sample to induce response. After dye loading, cells were removed from the incubator and 10 μL HBSS/20 mM Hepes was added. Vehicle was included in the buffer when performing agonist dose curves to define the EC80 for antagonist assays. Cells were incubated for 30 minutes at room temperature in the dark to equilibrate plate temperature. Intermediate dilution of sample stocks was performed to generate 4× sample in assay buffer. Compound agonist activity was measured on a FLIPR Tetra (MDS), and calcium mobilization was monitored for 2 minutes and 10 μL 4× sample in HBSS/20 mM Hepes was added to the cells 5 seconds into the assay.
For antagonist determination, cells were pre-incubated with sample followed by agonist challenge at the EC80 concentration. Intermediate dilution of sample stocks was performed to generate 3× sample in assay buffer. After dye loading, cells were removed from the incubator and 10 μL 3× sample was added. Cells were incubated for 30 minutes at room temperature in the dark to equilibrate plate temperature. Vehicle concentration was 1%. Compound antagonistic activity was measured on a FLIPR Tetra (MDS), and calcium mobilization was monitored for 2 minutes and 10 μL EC80 agonist in HBSS/20 mM Hepes was added to the cells 5 seconds into the assay. The compound activity was analyzed using a CBIS data analysis suite (ChemInnovation, CA), and percentage activity is calculated using the following formula: % Activity=100%×(mean RFU of test sample−mean RFU of vehicle control)/(mean MAX RFU control ligand−mean RFU of vehicle control). For antagonist assays, percentage inhibition is calculated using the following formula: % Inhibition=100%×(1−(mean RFU of test sample−mean RFU of vehicle control)/(mean RFU of EC80 control−mean RFU of vehicle control)).

[2] = Compound gel-forming ability in water (visual inspection, tube tapping assay, tilted tube assay); assay type: physicochemical; conditions: for gel formation in aqueous solution, 11% / propensity to form gels, chimeric or mutated polypeptides, 11%: 11% w/w;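 as to all read-outs here: peptides mixed with de-ionized water at about 22-25 °C, judged after 20 min by eye plus tube tapping (10 taps, moves counted) and 90° tilt mobility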
[3] = molecular target: melanocortin receptor 1 (MC1R) (Homo sapiens, UniProt Q01726); test: MC1R cAMP assay (Discoverx), agonistic; assay type: cell-based
Sequence of melanocortin receptor 1 (MC1R) (Q01726 whole entry): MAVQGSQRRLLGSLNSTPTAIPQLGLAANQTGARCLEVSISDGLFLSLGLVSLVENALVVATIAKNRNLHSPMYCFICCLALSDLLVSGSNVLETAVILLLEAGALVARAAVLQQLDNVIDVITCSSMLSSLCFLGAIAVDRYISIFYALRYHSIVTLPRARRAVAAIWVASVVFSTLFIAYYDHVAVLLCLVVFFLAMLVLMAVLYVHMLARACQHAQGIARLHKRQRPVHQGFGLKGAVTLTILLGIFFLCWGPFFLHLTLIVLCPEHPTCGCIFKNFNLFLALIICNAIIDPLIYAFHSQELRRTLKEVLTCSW
Experimental: The agonistic activities toward MC1R, MC4R, CRHR2, PTHR1, and OPRK1 were assyed with an MC1R cAMP assay, an MC4R cAMP assay, a CRHR2 cAMP assay, a PTHR1 cAMP assay and an OPRK1 cAMP assay from Discoverx Inc. (Fremont, Calif.), respectively. The antagonistic activities toward bradykinin receptor 2 (BDKRB2) and GnRH receptor (GnRHR or LHRHR) were assayed with a BDKRB2 arrestin assay and a GnRHR calcium flux assay from Discoverx, respectively.
For the analysis of Gs-coupled cAMP production, cAMP Hunter cell lines were expanded from freezer stocks, and cells were seeded in a total volume of 20 μL into white walled, 384-well microplates and incubated at 37 C for the appropriate time prior to testing. The cAMP modulation was determined using the DiscoverX HitHunter cAMP XS+ assay. For agonistic activity determination, cells were incubated with sample to induce response. Media was aspirated from cells and replaced with 15 μL 2:1 HBSS/10 mM Hepes: cAMP XS+ Ab reagent. Intermediate dilution of sample stocks was performed to generate 4× sample in assay buffer, and 5 μL of 4× sample was added to cells and incubated at 37 C or room temperature for 30 or 60 minutes. Vehicle concentration was 1%. The compound activity was analyzed using a CBIS data analysis suite (ChemInnovation, CA). For Gs-coupled agonistic assays, percentage activity is calculated using the following formula: % Activity=100%×(mean RLU of test sample−mean RLU of vehicle control)/(mean RLU of MAX control−mean RLU of vehicle control).

SMILES	Max Activity % of positive control [1]	IC50 [1] [pM]	gel formation in aqueous solution, 11% ([2]; Table 3)	propensity to form gels, chimeric or mutated polypeptides, 11% ([2]; Table 5)	EC50 [3]	Max Activity % of positive control [3]	further results
CC(=O)N[C@H](Cc1ccc2ccccc2c1)C(=O)N[C@H](Cc1ccc(Cl)cc1)C(=O)N[C@H](Cc1cccnc1)C(=O)N[C@@H](CO)C(=O)N[C@@H](Cc1ccc(O)cc1)C(=O)N[C@H](CCCNC(N)=O)C(=O)N[C@@H](CC(C)C)C(=O)N[C@@H](CCCNC(=N)N)C(=O)N1CCC[C@H]1C(=O)N[C@H](C)C(N)=O [Cetrorelix, reference compound] (Ac-[d2Nal][dPhe(4-Cl)][d3Pal]SY[dCit]LRP[dA]-NH2)	91.4 % of positive control	80	–	–	–	–	–
CCCCCCCCCCCCCCCC(=O)N[C@@H](CCCCN)C(=O)N[C@H](C(=O)N[C@@H](CCC(N)=O)C(=O)N[C@@H](CCCCN)C(=O)N[C@@H](CC(C)C)C(=O)N[C@@H](CO)C(=O)N[C@@H](C)C(=O)N1CCC[C@H]1C(=O)N[C@H](C(=O)N[C@@H](CC(=O)O)C(=O)N1CCC[C@H]1C(=O)N[C@@H](CO)C(=O)N[C@@H](CO)C(=O)N1CCC[C@H]1C(=O)N[C@@H](Cc1c[nH]cn1)C(=O)N[C@@H](CO)C(=O)N[C@@H](Cc1ccc(O)cc1)C(=O)NCCOCCOCC(=O)N[C@H](Cc1ccc2ccccc2c1)C(=O)N[C@H](Cc1ccc(Cl)cc1)C(=O)N[C@H](Cc1cccnc1)C(=O)N[C@@H](CO)C(=O)N[C@@H](Cc1ccc(O)cc1)C(=O)N[C@H](CCCNC(N)=O)C(=O)N[C@@H](CC(C)C)C(=O)N[C@@H](CCCNC(=N)N)C(=O)N1CCC[C@H]1C(=O)N[C@H](C)C(N)=O)C(C)C)C(C)C [SEQ ID NO:202]	135 % of positive control	–	SS (SS for semisolid gel)	SS (An ability to form semisolid gel is represented by an SS)	–	–	gel formation at 6% w/w ([2]; 6% w/w in water): semisolid gel; gel formation at 11% w/w ([2]; 11% w/w in water): semisolid gel; gel formation in aqueous solution, 6% ([2]; Table 3, 6% w/w): SS (SS for semisolid gel); propensity to form gels, chimeric or mutated polypeptides, 3% ([2]; Table 5, 3% w/w): AS/IS; propensity to form gels, chimeric or mutated polypeptides, 6% ([2]; Table 5, 6% w/w): SS (An ability to form semisolid gel is represented by an SS)
CCCCCCCCCCCCCCCC(=O)N[C@@H](Cc1c[nH]cn1)C(=O)N[C@@H](CO)C(=O)N[C@@H](Cc1ccc(O)cc1)C(=O)N[C@H](Cc1ccc2ccccc2c1)C(=O)N[C@H](Cc1ccc(Cl)cc1)C(=O)N[C@H](Cc1cccnc1)C(=O)N[C@@H](CO)C(=O)N[C@@H](Cc1ccc(O)cc1)C(=O)N[C@H](CCCNC(N)=O)C(=O)N[C@@H](CC(C)C)C(=O)N[C@@H](CCCNC(=N)N)C(=O)N1CCC[C@H]1C(=O)N[C@H](C)C(N)=O [SEQ ID NO:203, Pal-HSY-(D-Nal)-(D-Cpa)-(D-Pal)-SY-(D-Cit)-LRP-(D-Ala)-NH2] (Palmitoyl-HSY[d2Nal][dPhe(4-Cl)][d3Pal]SY[dCit]LRP[dA]-NH2)	109 % of positive control	< 510	–	–	–	–	–
CCCCCCCCCCCCCCCC(=O)N[C@@H](Cc1c[nH]cn1)C(=O)N[C@@H](CO)C(=O)N[C@@H](Cc1ccc(O)cc1)C(=O)N[C@@H](CO)C(=O)N[C@@H](CCCC)C(=O)N[C@@H](CCC(=O)O)C(=O)N[C@@H](Cc1c[nH]cn1)C(=O)N[C@H](Cc1ccccc1)C(=O)N[C@@H](CCCNC(=N)N)C(=O)N[C@@H](Cc1c[nH]c2ccccc12)C(=O)NCC(=O)N[C@@H](CCCCN)C(=O)N1CCC[C@H]1C(=O)N[C@H](C(N)=O)C(C)C [SEQ ID NO:224, Pal-HSYS-Nle-EH-(D-Phe)-RWGKPV-NH2]	–	–	–	–	subnanomolar	120 % of positive control	EC50 ([3]; read-out: EC50): < 50 pM
CCCCCCCCCCCCCCCC(=O)N[C@@H](Cc1c[nH]cn1)C(=O)N[C@@H](CO)C(=O)N[C@@H](Cc1ccc(O)cc1)C(=O)N[C@@H](CO)C(=O)N[C@@H](CCSC)C(=O)N[C@@H](CCC(=O)O)C(=O)N[C@@H](Cc1c[nH]cn1)C(=O)N[C@@H](Cc1ccccc1)C(=O)N[C@@H](CCCNC(=N)N)C(=O)N[C@@H](Cc1c[nH]c2ccccc12)C(=O)NCC(=O)N[C@@H](CCCCN)C(=O)N1CCC[C@H]1C(=O)N[C@H](C(=O)NCC(=O)N[C@@H](CCCCN)C(=O)N[C@@H](CCCCN)C(=O)N[C@@H](CCCNC(=N)N)C(=O)N[C@@H](CCCNC(=N)N)C(=O)N1CCC[C@H]1C(=O)N[C@H](C(=O)N[C@@H](CCCCN)C(=O)N[C@H](C(=O)N[C@@H](Cc1ccc(O)cc1)C(=O)N1CCC[C@H]1C(=O)O)C(C)C)C(C)C)C(C)C [SEQ ID NO:226]	–	–	SS (SS for semisolid gel)	SS (An ability to form semisolid gel is represented by an SS)	nanomolar	115 % of positive control	–
